Patent US9199946B2, “Pyrimidinone carboxamide inhibitors of endothelial lipase” (BRISTOL-MYERS SQUIBB COMPANY, priority 2012, dated 2015)

These molecules were tested against T1, Endothelial lipase (EL) (Homo sapiens, UniProt Q9Y5X9) (assay: Endothelial lipase (EL) enzymatic assay with fluorescent substrate A10070 in DMPG vesicles). Details: conditioned media from HT-1080 cells overexpressing endogenous EL; 20 min preincubation at 37° C.; read-out: EL IC50.
T1 construct: HT-1080 cells, which were transformed by RAGE technology (Athersys) to overexpress endogenous EL; endogenous in cells; conditioned medium used as the enzyme source
T1 sequence (Q9Y5X9 21-500): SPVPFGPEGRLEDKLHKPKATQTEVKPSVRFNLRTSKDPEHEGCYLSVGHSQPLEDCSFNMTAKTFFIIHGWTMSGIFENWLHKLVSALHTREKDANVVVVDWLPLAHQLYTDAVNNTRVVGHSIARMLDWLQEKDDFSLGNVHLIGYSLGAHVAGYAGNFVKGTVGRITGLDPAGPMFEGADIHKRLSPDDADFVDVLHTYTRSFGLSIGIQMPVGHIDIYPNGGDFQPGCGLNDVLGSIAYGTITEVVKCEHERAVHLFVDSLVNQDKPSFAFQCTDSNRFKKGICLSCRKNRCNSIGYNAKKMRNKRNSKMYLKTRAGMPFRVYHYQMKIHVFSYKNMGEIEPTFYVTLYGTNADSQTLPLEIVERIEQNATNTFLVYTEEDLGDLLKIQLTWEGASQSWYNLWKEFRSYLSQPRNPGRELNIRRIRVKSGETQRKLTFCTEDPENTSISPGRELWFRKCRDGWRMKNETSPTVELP
Type: biochemical
Summary of the method: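 EL activity was followed as a fluorescence rate (488/530 nm, reads every 20 s for 10 min, linear slope) on A10070 doped at 0.05 mole fraction into sonicated DMPG vesicles. Compound was first incubated 20 min at 37 °C, pH 8.0 HEPES/CaCl2 buffer, with conditioned media from EL-overexpressing HT-1080 cells.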
Molecule Nc1c(C(=O)N[C@H]2CCc3ccc(C(F)(F)F)cc32)[nH]c(=O)[nH]c1=O [Example 15, (S)-5-amino-2,6-dioxo-N-(6-(trifluoromethyl)-2,3-dihydro-1H-inden-1-yl)-1,2,3,6-tetrahydropyrimidine-4-carboxamide] has an IC50 of 13 µM.
Work on Cc1nc(-c2ccccc2)sc1-c1ccc([C@@H]2CC[C@H](NC(=O)c3[nH]c(=O)[nH]c(=O)c3N)C2)cc1 (stereo in doubt) [Example 171, 5-amino-N-((1S,3R)-3-(4-(4-methyl-2-phenylthiazol-5-yl)phenyl)cyclopentyl)-2,6-dioxo-1,2,3,6-tetrahydropyrimidine-4-carboxamide] yielded an IC50 of 1.48 µM.
Nc1c(C(=O)N[C@@H]2CCc3c(-c4ccccc4)cccc32)[nH]c(=O)[nH]c1=O [Example 137, (R)-5-amino-2,6-dioxo-N-(4-phenyl-2,3-dihydro-1H-inden-1-yl)-1,2,3,6-tetrahydropyrimidine-4-carboxamide] gave an IC50 of 0.848 µM.
Molecule O=C(N[C@H]1CC[C@@H](c2ccccc2)CC1)c1[nH]c(=O)[nH]c(=O)c1NC1CCCC1 [Example 208, 5-(cyclopentylamino)-2,6-dioxo-N-(cis-4-phenylcyclohexyl)-1,2,3,6-tetrahydropyrimidine-4-carboxamide] has an IC50 of 0.659 µM.
Nc1c(C(=O)NC2CCCN(c3nccc(C(F)(F)F)n3)C2)[nH]c(=O)[nH]c1=O (stereo not drawn) [Example 184, 5-amino-2,6-dioxo-N-(1-(4-(trifluoromethyl)pyrimidin-2-yl)piperidin-3-yl)-1,2,3,6-tetrahydropyrimidine-4-carboxamide] showed an IC50 of 5.71 µM.

Same assay, conditions: range observed in the EL assay; read-out: EL IC50 values
COc1cccc2c1CCCC2NC(=O)c1[nH]c(=O)[nH]c(=O)c1N (stereo not drawn) [Example 47, 5-amino-N-(5-methoxy-1,2,3,4-tetrahydronaphthalen-1-yl)-2,6-dioxo 1,2,3,6-tetrahydropyrimidine-4-carboxamide] was tested, and the IC50 was at most 10 µM.
Nc1c(C(=O)N[C@@H]2CCc3cc(Oc4ccccc4)ccc32)[nH]c(=O)[nH]c1=O [Example 89, (R)-5-amino-2,6-dioxo-N-(5-phenoxy-2,3-dihydro-1H-inden-1-yl)-1,2,3,6-tetrahydropyrimidine-4-carboxamide] showed an IC50 of at most 10 µM.
Cc1nc(-c2ccccc2)sc1-c1ccc([C@@H]2CC[C@H](NC(=O)c3[nH]c(=O)[nH]c(=O)c3N)C2)cc1 (stereo in doubt) [Example 171, 5-amino-N-((1S,3R)-3-(4-(4-methyl-2-phenylthiazol-5-yl)phenyl)cyclopentyl)-2,6-dioxo-1,2,3,6-tetrahydropyrimidine-4-carboxamide] showed an IC50 of at most 10 µM.
For Nc1c(C(=O)N[C@@H]2CCCc3c(OCc4ccccc4F)cccc32)[nH]c(=O)[nH]c1=O [Example 96, (R)-5-amino-N-(5-(2-fluorobenzyloxy)-1,2,3,4-tetrahydronaphthalen-1-yl)-2,6-dioxo-1,2,3,6-tetrahydropyrimidine-4-carboxamide], the IC50 was at most 10 µM.
Molecule O=C(N[C@@H]1CC[C@H](c2ccccc2)c2ccccc21)c1[nH]c(=O)[nH]c(=O)c1O [Example 250, 5-hydroxy-2,6-dioxo-N-((1R,4R)-4-phenyl-1,2,3,4-tetrahydronaphthalen-1-yl)-1,2,3,6-tetrahydropyrimidine-4-carboxamide] has an IC50 of at most 10 µM.
Nc1c(C(=O)N[C@@H]2CCCc3c(Nc4ccccc4)cccc32)[nH]c(=O)[nH]c1=O [Example 126, (R)-5-amino-2,6-dioxo-N-(5-(phenylamino)-1,2,3,4-tetrahydronaphthalen-1-yl)-1,2,3,6-tetrahydropyrimidine-4-carboxamide] gave an IC50 of at most 10 µM.
With C[C@H](Nc1c(C(=O)N[C@H]2CC[C@@H](c3ccccc3)CC2)[nH]c(=O)[nH]c1=O)C1CCCCC1 [Example 232, 5-((S)-1-cyclohexylethylamino)-2,6-dioxo-N-(cis-phenylcyclohexyl)-1,2,3,6-tetrahydropyrimidine-4-carboxamide] the IC50 was at most 10 µM.
Nc1c(C(=O)N[C@@H]2CCCc3c(Oc4ccccc4)cccc32)[nH]c(=O)[nH]c1=O [Example 84, (R)-5-amino-2,6-dioxo-N-(5-phenoxy-1,2,3,4-tetrahydronaphthalen-1-yl)-1,2,3,6-tetrahydropyrimidine-4-carboxamide] was tested, and the IC50 was at most 10 µM.
Work on O=C(N[C@H]1CC[C@@H](c2ccccc2)CC1)c1[nH]c(=O)[nH]c(=O)c1NCC(F)(F)F [Example 228, 2,6-dioxo-N-(cis-4-phenylcyclohexyl)-5-(2,2,2-trifluoroethylamino)-1,2,3,6-tetrahydropyrimidine-4-carboxamide] yielded an IC50 of at most 10 µM.
For Nc1c(C(=O)N[C@@H]2CCCc3cc(C(F)(F)F)ccc32)[nH]c(=O)[nH]c1=O [Example 51, (R)-5-amino-2,6-dioxo-N-(6-(trifluoromethyl)-1,2,3,4-tetrahydronaphthalen-1-yl)-1,2,3,6-tetrahydropyrimidine-4-carboxamide], the IC50 was at most 10 µM.
Molecule Nc1c(C(=O)N[C@H]2CCCc3c2cccc3C(F)(F)F)[nH]c(=O)[nH]c1=O [Example 50, (S)-5-amino-2,6-dioxo-N-(5-(trifluoromethyl)-1,2,3,4-tetrahydronaphthalen-1-yl)-1,2,3,6-tetrahydropyrimidine-4-carboxamide] has an IC50 of at most 10 µM.
In the case of Nc1c(C(=O)N[C@@H]2CCc3cc(Br)ccc32)[nH]c(=O)[nH]c1=O [Example 65, (R)-5-amino-N-(5-bromo-2,3-dihydro-1H-inden-1-yl)-2,6-dioxo-1,2,3,6-tetrahydropyrimidine-4-carboxamide], the IC50 is reported as at most 10 µM.
With N#C[C@]1(c2ccc(Cl)c(Cl)c2)CC[C@@H](NC(=O)c2[nH]c(=O)[nH]c(=O)c2N)CC1 [Example 7, 5-amino-N-(cis-4-cyano-4-(3,4-dichlorophenyl)cyclohexyl)-2,6-dioxo-1,2,3,6-tetrahydropyrimidine-4-carboxamide] the IC50 was at most 10 µM.
Nc1c(C(=O)N[C@H]2CCN(c3ccccc3)C2)[nH]c(=O)[nH]c1=O [Example 192, (S)-5-amino-2,6-dioxo-N-(1-phenylpyrrolidin-3-yl)-1,2,3,6-tetrahydropyrimidine-4-carboxamide] gave an IC50 of at most 10 µM.
For Nc1c(C(=O)N[C@@H]2CCN(c3ccccc3)C2)[nH]c(=O)[nH]c1=O [Example 191, (R)-5-amino-2,6-dioxo-N-(1-phenylpyrrolidin-3-yl)-1,2,3,6-tetrahydropyrimidine-4-carboxamide], the IC50 was at most 10 µM.
For Nc1c(C(=O)N[C@@H]2CCc3c(-c4ccccc4)cccc32)[nH]c(=O)[nH]c1=O [Example 137, (R)-5-amino-2,6-dioxo-N-(4-phenyl-2,3-dihydro-1H-inden-1-yl)-1,2,3,6-tetrahydropyrimidine-4-carboxamide], the IC50 was at most 10 µM.
Molecule CS(=O)(=O)N1CCC(NC(=O)c2[nH]c(=O)[nH]c(=O)c2N)c2ccccc21 (single isomer, unassigned; enantiomer b) [Example 196, 5-amino-N-(1-(methylsulfonyl)-1,2,3,4-tetrahydroquinolin-4-yl)-2,6-dioxo-1,2,3,6-tetrahydropyrimidine-4-carboxamide (Enantiomer B)] has an IC50 of at most 10 µM.
For COC(=O)[C@@H]1C[C@@H](NC(=O)c2[nH]c(=O)[nH]c(=O)c2N)c2ccccc2[C@H]1c1ccccc1 [Example 23, (1R,2R,4R)-methyl 4-(5-amino-2,6-dioxo-1,2,3,6-tetrahydropyrimidine-4-carboxamido)-1-phenyl-1,2,3,4-tetrahydronaphthalene-2-carboxylate], the IC50 was at most 10 µM.
For Nc1c(C(=O)N[C@H]2C[C@@H](c3ccccc3)c3ccccc32)[nH]c(=O)[nH]c1=O [Example 28, 5-amino-2,6-dioxo-N-((1S,3S)-3-phenyl-2,3-dihydro-1H-inden-1-yl)-1,2,3,6-tetrahydropyrimidine-4-carboxamide], the IC50 was at most 10 µM.
Nc1c(C(=O)N[C@@H]2CCCc3cc(Oc4ccccc4)ccc32)[nH]c(=O)[nH]c1=O [Example 85, (R)-5-amino-2,6-dioxo-N-(6-phenoxy-1,2,3,4-tetrahydronaphthalen-1-yl)-1,2,3,6-tetrahydropyrimidine-4-carboxamide] was tested, and the IC50 was at most 10 µM.
Molecule Nc1c(C(=O)N[C@@H]2CC[C@H](c3ccc(Cl)c(Cl)c3)C2)[nH]c(=O)[nH]c1=O [Example 74, 5-amino-N-((1R,3S)-3-(3,4-dichlorophenyl)cyclopentyl)-2,6-dioxo-1,2,3,6-tetrahydropyrimidine-4-carboxamide] has an IC50 of at most 10 µM.
Nc1c(C(=O)NC2CCC(c3ccccc3)CC2)[nH]c(=O)[nH]c1=O (stereo not drawn) [Example 2, 5-amino-2,6-dioxo-N-(4-phenylcyclohexyl)-1,2,3,6-tetrahydropyrimidine-4-carboxamide] showed an IC50 of at most 10 µM.
With O=C(N[C@@H]1CCC[C@@H](c2ccccc2)C1)c1[nH]c(=O)[nH]c(=O)c1O [Example 278, 5-hydroxy-2,6-dioxo-N-((1R,3R)-3-phenylcyclohexyl)-1,2,3,6-tetrahydropyrimidine-4-carboxamide] the IC50 was at most 10 µM.
Nc1c(C(=O)N[C@H]2CC[C@@H](NC(=O)c3ccccc3)CC2)[nH]c(=O)[nH]c1=O [Example 115, 5-amino-N-(cis-4-benzamidocyclohexyl)-2,6-dioxo-1,2,3,6-tetrahydropyrimidine-4-carboxamide] showed an IC50 of at most 10 µM.
With O=C(N[C@H]1CC[C@@H](c2ccccc2)CC1)c1[nH]c(=O)[nH]c(=O)c1NC1CCCC1 [Example 208, 5-(cyclopentylamino)-2,6-dioxo-N-(cis-4-phenylcyclohexyl)-1,2,3,6-tetrahydropyrimidine-4-carboxamide] the IC50 was at most 10 µM.
Nc1c(C(=O)N[C@@H]2CCCc3c(NC(=O)c4ccccc4)cccc32)[nH]c(=O)[nH]c1=O [Example 124, (R)-5-amino-N-(5-benzamido-1,2,3,4-tetrahydronaphthalen-1-yl)-2,6-dioxo-1,2,3,6-tetrahydropyrimidine-4-carboxamide] showed an IC50 of at most 10 µM.
Nc1c(C(=O)NC2CCCN(c3nccc(C(F)(F)F)n3)C2)[nH]c(=O)[nH]c1=O (stereo not drawn) [Example 184, 5-amino-2,6-dioxo-N-(1-(4-(trifluoromethyl)pyrimidin-2-yl)piperidin-3-yl)-1,2,3,6-tetrahydropyrimidine-4-carboxamide] gave an IC50 of at most 10 µM.
Nc1c(C(=O)N[C@H]2CCCc3ccc(F)cc32)[nH]c(=O)[nH]c1=O [Example 41, (S)-5-amino-N-(7-fluoro-1,2,3,4-tetrahydronaphthalen-1-yl)-2,6-dioxo-1,2,3,6-tetrahydropyrimidine-4-carboxamide] gave an IC50 of at most 10 µM.
